These results are taken from PMC3298710, “^111In-BnDTPA-F3: an Auger electron-emitting radiotherapeutic agent that targets nucleolin” (EJNMMI Research, 2012).

In the test the test system is 231-H2N cells. The experiment in a line: Clonogenic survival. The test is classed as cell-based, human. The note with it: 24 h, amount equivalent to 2 μM 111In-BnDTPA-F3 at highest specific activity, from 100 ± 5%. How it is done:
[…] After incubation at 37°C for 24 h, 2 × 10^3 cells were seeded per well in a 6-well plate, and 2 mL of fresh growth medium was added. After 7 to 14 days, cell colonies were stained with methylene blue (2% methylene blue in water/methanol 1:1) and counted. Combination indices (CI) of ^111In with BnDTPA-F3 were determined as described by Edelman et al.. A CI < 0.9 indicates superadditivity.

Regarding `[Cl][111In]([Cl])[Cl]` [111In chloride], the “clonogenic survival, equivalent amount of 111In chloride” value turned out to be 46 ± 4%.
